Source: article PMC5141248 (Biochemistry, 2016)

Target: human CP4H1 (Homo sapiens, UniProt P13674)
Assay: UPLC peptide hydroxylation assay
Type: biochemical
Settings: turnover; cosubstrate 0.1-10 mM, dansylGlyProProGlyOEt 500 μM, Fe(II) 50 μM, ascorbate 2 mM, pH 7.8, 30 °C

human CP4H1, sequence (P13674 18-534): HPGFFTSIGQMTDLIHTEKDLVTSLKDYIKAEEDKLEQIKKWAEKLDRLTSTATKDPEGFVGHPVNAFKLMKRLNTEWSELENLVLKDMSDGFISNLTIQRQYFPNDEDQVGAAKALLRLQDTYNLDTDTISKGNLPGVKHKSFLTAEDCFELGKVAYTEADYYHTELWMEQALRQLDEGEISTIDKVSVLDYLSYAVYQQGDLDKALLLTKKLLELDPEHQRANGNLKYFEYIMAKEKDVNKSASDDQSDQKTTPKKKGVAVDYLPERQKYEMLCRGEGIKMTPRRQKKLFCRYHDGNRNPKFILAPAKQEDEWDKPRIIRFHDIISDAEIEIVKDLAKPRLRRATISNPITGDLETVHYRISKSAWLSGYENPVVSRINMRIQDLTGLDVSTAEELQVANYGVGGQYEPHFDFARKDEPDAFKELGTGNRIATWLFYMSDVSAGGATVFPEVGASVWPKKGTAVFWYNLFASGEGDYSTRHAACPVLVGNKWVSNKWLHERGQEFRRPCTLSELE
human CP4H1, sequence (P07237 18-508 partner): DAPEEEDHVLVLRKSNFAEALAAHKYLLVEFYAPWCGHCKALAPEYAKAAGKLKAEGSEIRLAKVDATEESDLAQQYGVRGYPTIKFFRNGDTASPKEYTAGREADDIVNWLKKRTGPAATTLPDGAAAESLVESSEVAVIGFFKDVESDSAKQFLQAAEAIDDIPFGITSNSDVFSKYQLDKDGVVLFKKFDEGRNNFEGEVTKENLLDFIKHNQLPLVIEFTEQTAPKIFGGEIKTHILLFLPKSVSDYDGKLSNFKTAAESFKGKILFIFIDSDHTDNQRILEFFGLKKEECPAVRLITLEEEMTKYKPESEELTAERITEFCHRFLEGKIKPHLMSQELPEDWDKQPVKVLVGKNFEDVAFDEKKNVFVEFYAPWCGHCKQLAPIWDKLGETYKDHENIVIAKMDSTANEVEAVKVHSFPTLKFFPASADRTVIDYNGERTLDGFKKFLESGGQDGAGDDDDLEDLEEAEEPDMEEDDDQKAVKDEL

O=C(O)CCC(=O)C(=O)O [α-ketoglutarate]
UPLC peptide hydroxylation assay: the reaction was initiated by the addition of α-ketoglutarate
